This is an account of results in article PMC4486471 (Nature communications, 2014).

The target in data set [1] is T1, murine IRE1α (Mus musculus, UniProt Q9EQY0, N772Y). Briefly: biochemical. The conditions noted are these: IC50 IRE1α RNase activity, naphthol analogue series, average n=4 +/- s.d.
Another data set has as its system CD59 mRNA (RIDD target). Briefly: CD59. The class given is cell-based, human. To be noted: 10 μM.
Another data set concerns the target murine IRE1α His910Ala (Mus musculus, UniProt Q9EQY0, H910A/N772Y). Briefly: Direct binding by micro-scale thermophoresis. To be noted: Kd (avg), average.
The target in data set [2] is T2, yeast IRE1 (Saccharomyces cerevisiae, UniProt P32361, DEL869-892).
T2 sequence (P32361 with tags, fused parts or gaps DEL869-892): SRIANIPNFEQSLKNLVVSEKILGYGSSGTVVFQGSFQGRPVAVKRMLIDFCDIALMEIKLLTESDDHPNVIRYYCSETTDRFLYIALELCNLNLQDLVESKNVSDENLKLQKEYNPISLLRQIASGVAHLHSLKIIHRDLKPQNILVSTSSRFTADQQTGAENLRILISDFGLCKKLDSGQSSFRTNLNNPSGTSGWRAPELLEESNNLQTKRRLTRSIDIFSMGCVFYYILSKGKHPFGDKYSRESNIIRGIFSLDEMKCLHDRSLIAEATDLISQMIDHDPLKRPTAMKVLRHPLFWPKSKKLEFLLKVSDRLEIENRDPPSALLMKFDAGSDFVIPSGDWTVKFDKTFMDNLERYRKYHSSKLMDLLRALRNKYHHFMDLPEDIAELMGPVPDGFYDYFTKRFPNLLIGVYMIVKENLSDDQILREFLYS
Briefly: IRE1 RNase activity, real time fluorescence readout assay. It is filed as biochemical. To be noted: RNase inhibition.

For another data set, the target named is murine IRE1α Asn906Leu (Mus musculus, UniProt Q9EQY0, N772Y/N906L). Briefly: Direct binding by micro-scale thermophoresis. The conditions noted are these: Kd (avg), average.
In data set [3] the target is T3, murine IRE1α Lys907Ala (Mus musculus, UniProt Q9EQY0, K907A/N772Y). Briefly: Direct binding by micro-scale thermophoresis.
Data set [4] deals with T3, murine IRE1α Lys907Ala. Briefly: Gel based RNase cleavage assay with dual-hairpin RNA substrate. It is filed as biochemical. The conditions noted are these: 100 μM IRE1α, 60 μM dual hairpin substrate.
Another data set addresses murine IRE1α Tyr892Ala (Mus musculus, UniProt Q9EQY0, N772Y/Y892A). Briefly: Direct binding by micro-scale thermophoresis. To be noted: Kd (avg), average.
In data set [5] the test system is XBP1 mRNA splicing (IRE1α). Briefly: XBP1 mRNA splicing in RPMI 8226 plasmacytoma cells. It is filed as cell-based, human.
For a further data set, the target named is murine IRE1α Phe889Ala (Mus musculus, UniProt Q9EQY0, F889A/N772Y). Briefly: Direct binding by micro-scale thermophoresis. The conditions noted are these: Kd (avg), average.
Data set [6] deals with IRE1α auto-kinase activity (Mus musculus, UniProt Q9EQY0, N772Y). Briefly: IRE1α auto-kinase. It is filed as biochemical, murine.
Data set [7] deals with murine IRE1α auto-kinase activity (Mus musculus, UniProt Q9EQY0, N772Y). Briefly: Auto-phosphorylation kinase assay with P32-γ-ATP. The class given is biochemical. To be noted: read-out: IC50 (avg) auto-kinase activity of murine IRE1α; 10 minute time point; n=2.
For data set [8], the target named is T2, yeast IRE1. To be noted: cited from earlier work.
Data set [9] deals with T1, murine IRE1α. Briefly: Oligomerization status by velocity analytical ultracentrifugation. To be noted: ADP 500 μM, JAK inhibitor I 30 μM.
The subject of data set [10] is rheumatoid arthritis model. To be noted: cited from earlier work.
A further data set deals with myeloma tumor. To be noted: cited from earlier work.

T1 sequence (Q9EQY0 499-977 N772Y): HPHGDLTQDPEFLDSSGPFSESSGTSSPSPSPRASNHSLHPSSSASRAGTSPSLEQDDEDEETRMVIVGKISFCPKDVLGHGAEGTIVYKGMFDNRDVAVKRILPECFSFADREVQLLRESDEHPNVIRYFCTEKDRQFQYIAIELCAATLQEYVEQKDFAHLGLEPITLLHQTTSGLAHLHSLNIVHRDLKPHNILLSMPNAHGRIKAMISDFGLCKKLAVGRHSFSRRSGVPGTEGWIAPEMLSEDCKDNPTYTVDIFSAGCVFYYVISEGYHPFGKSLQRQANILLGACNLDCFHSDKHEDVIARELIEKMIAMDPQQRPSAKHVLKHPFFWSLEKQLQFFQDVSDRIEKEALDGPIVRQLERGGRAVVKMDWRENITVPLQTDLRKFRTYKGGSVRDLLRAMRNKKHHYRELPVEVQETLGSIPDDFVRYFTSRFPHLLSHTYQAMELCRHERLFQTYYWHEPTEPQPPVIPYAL
T3 sequence (Q9EQY0 499-977 N772Y/K907A): as the sequence (Q9EQY0 499-977 N772Y) above, with K409A counted along it
Chain of murine IRE1α Tyr892Ala (Q9EQY0 499-977 N772Y/Y892A): as the sequence (Q9EQY0 499-977 N772Y) above, with Y394A counted along it
Chain of murine IRE1α Phe889Ala (Q9EQY0 499-977 N772Y/F889A): as the sequence (Q9EQY0 499-977 N772Y) above, with F391A counted along it
Chain of murine IRE1α Asn906Leu (Q9EQY0 499-977 N772Y/N906L): as the sequence (Q9EQY0 499-977 N772Y) above, with N408L counted along it
Chain of murine IRE1α His910Ala (Q9EQY0 499-977 N772Y/H910A): as the sequence (Q9EQY0 499-977 N772Y) above, with H412A counted along it
Chain of IRE1α auto-kinase activity (Q9EQY0 499-977 N772Y): as the sequence (Q9EQY0 499-977 N772Y) above
Chain of murine IRE1α auto-kinase activity (Q9EQY0 499-977 N772Y): as above

Turning to `O=Cc1c(O)ccc2ccc(Br)cc12` [MKC3987, 7-Bromo-2-hydroxy-naphthalene-1-carbaldehyde], 0.39 µM corresponded to half-maximal inhibition against murine IRE1α [1] (IC50).
For the compound `COCCOCCc1c(C)c2cc(OC)c(O)c(C=O)c2oc1=O` [MKC9989, 7-Hydroxy-6-methoxy-3-(2-(2-methoxyethoxy)ethyl)-4-methyl-2-oxo-2H-chromene-8-carbaldehyde], the “CD59 mRNA level” value is recorded as “moderately stabilized” in the data set with CD59 mRNA (RIDD target) (administered 2 hour post treatment with thapsigargin), “markedly stabilized” in the data set on CD59 mRNA (RIDD target) (co-administered with thapsigargin relative to thapsigargin alone) and “modestly increased” with CD59 mRNA (RIDD target) (non-stressed cells). Besides, the dissociation constant Kd stood at 5.3 µM on murine IRE1α His910Ala, 8.9 µM at murine IRE1α Asn906Leu, 10 µM on murine IRE1α Tyr892Ala and 10.9 µM on murine IRE1α Phe889Ala. The “Resistance of yeast IRE1 relative to IRE1α” value on yeast IRE1 [2] was ~ 100 fold. At murine IRE1α Lys907Ala [3], the “Binding to IRE1α Lys907Ala” value is reported as “abolished detectable binding”. Also, at murine IRE1α Lys907Ala [4], the “Sensitivity of RNase activity to inhibitor” value is “insensitive”. For the same compound, the “Inhibition of basal and thapsigargin induced splicing of XBP1 mRNA” value in data set [5] (10 μM compound, 1 μM thapsigargin, RPMI 8226) is recorded as “completely inhibited”. For the same compound, the EC50 in data set [5] (Homo sapiens, RPMI-8226, read-out: EC50 (avg) XBP1 splicing) is 0.33 µM. For the same compound, the 50% inhibitory concentration (IC50) in [6] was above 10 µM.
For JAK inhibitor I, the IC50 in data set [7] amounted to 1.1 µM. For the same compound, the “Effect on dimerization/oligomerization of yeast IRE1 and its RNase activity” value at yeast IRE1 [8] is given as “promoted”. Besides, at murine IRE1α [9], the “Effect on concentration dependent oligomerization of IRE1α” value was “enhanced”.
On to `Cc1cc(=O)oc2c(C=O)c(O)ccc12` [4μ8C], for which the “XBP1s, inflammatory cytokines and inflammation” value in [10] is given as “effective in suppressing”.
Consider `CN1CCN(C(=O)c2ccc(-c3ccc4c(C=O)c(O)ccc4c3)s2)CC1` [MKC3946, 2-Hydroxy-6-[5-(4-methyl-piperazine-1-carbonyl)-thiophen-2-yl]-naphthalene-1-carbaldehyde], for which, in the data set on myeloma tumor, the Myeloma tumor growth result is “reduced myeloma tumor growth”; the “Splicing of XBP1 mRNA in tissues and tumors” value is “inhibited the splicing of XBP1 mRNA in tissues and tumors”; the Tolerability in vivo entry is listed as “readily tolerated with high exposure”.
On murine IRE1α [1], `CN1CCN(C(=O)c2ccc(-c3ccc4ccc(O)c(C=O)c4c3)cc2)CC1` [MKC4027, 2-Hydroxy-7-[4-(4-methyl-piperazine-1-carbonyl)-phenyl]-naphthalene-1-carbaldehyde] displayed an IC50 of 5.7 µM.
